Results taken from the NIST ThermoML archive (doi:10.1021/je900387e).
± gives the expanded uncertainty stated by the source.

Assay: xn = mol fraction of the nth substance listed
Details: Liquid, Pycnometric method

Cn1ccnc1 [1-methylimidazole] + O=C=O
mass density [kg/m3]
Details	317.9 K	322.7 K
10720 kPa, x1 = 0.0102	–	558 ± 4
10820 kPa, x1 = 0.0102	–	568 ± 4
10930 kPa, x1 = 0.0102	–	578 ± 4
11040 kPa, x1 = 0.0102	–	589 ± 4
11140 kPa, x1 = 0.0102	–	600 ± 4
11270 kPa, x1 = 0.0102	–	612 ± 4
11430 kPa, x1 = 0.0102	–	624 ± 4
11460 kPa, x1 = 0.0247	–	701 ± 4
11570 kPa, x1 = 0.0247	–	706 ± 4
11610 kPa, x1 = 0.0102	–	636 ± 4
11730 kPa, x1 = 0.0247	–	712 ± 4
11810 kPa, x1 = 0.0102	–	649 ± 4
11910 kPa, x1 = 0.0247	–	719 ± 4
11960 kPa, x1 = 0.0247	774 ± 4	–
11970 kPa, x1 = 0.0487	825 ± 4	–
12030 kPa, x1 = 0.0102	–	663 ± 4
12080 kPa, x1 = 0.0487	827 ± 4	–
12090 kPa, x1 = 0.0247	–	726 ± 4
12100 kPa, x1 = 0.0102	731 ± 4	–
12210 kPa, x1 = 0.0487	830 ± 4	–
12290 kPa, x1 = 0.0247	781 ± 4	–
12300 kPa, x1 = 0.0102	–	677 ± 4
12300 kPa, x1 = 0.0247	–	733 ± 4
12350 kPa, x1 = 0.0487	833 ± 4	–
12480 kPa, x1 = 0.0487	836 ± 4	–
12520 kPa, x1 = 0.0247	–	740 ± 4
12640 kPa, x1 = 0.0102	749 ± 4	692 ± 4
12640 kPa, x1 = 0.0487	838 ± 4	–
12750 kPa, x1 = 0.0247	–	747 ± 4
12820 kPa, x1 = 0.0247	793 ± 4	–
12930 kPa, x1 = 0.0487	843 ± 4	–
13150 kPa, x1 = 0.1024	919 ± 4	–
13260 kPa, x1 = 0.0102	766 ± 4	–
13300 kPa, x1 = 0.0487	849 ± 4	–
13400 kPa, x1 = 0.1024	922 ± 4	–
13440 kPa, x1 = 0.0247	806 ± 4	–
13660 kPa, x1 = 0.0487	854 ± 4	–
13720 kPa, x1 = 0.1024	925 ± 4	–
13980 kPa, x1 = 0.1024	927 ± 4	–
14030 kPa, x1 = 0.0487	860 ± 4	–
14060 kPa, x1 = 0.0102	785 ± 4	–
14140 kPa, x1 = 0.0247	819 ± 4	–
14310 kPa, x1 = 0.1024	930 ± 4	–
14450 kPa, x1 = 0.0487	866 ± 4	–
14560 kPa, x1 = 0.1024	933 ± 4	–
14670 kPa, x1 = 0.0247	828 ± 4	–
14710 kPa, x1 = 0.1024	934 ± 4	–
14880 kPa, x1 = 0.1024	936 ± 4	–
15050 kPa, x1 = 0.0102	806 ± 4	–
15130 kPa, x1 = 0.1024	938 ± 4	–
15280 kPa, x1 = 0.0247	837 ± 4	–
15330 kPa, x1 = 0.1024	939 ± 4	–
15480 kPa, x1 = 0.1024	941 ± 4	–
15570 kPa, x1 = 0.0247	841 ± 4	–
15630 kPa, x1 = 0.1024	942 ± 4	–
15890 kPa, x1 = 0.0102	821 ± 4	–
15920 kPa, x1 = 0.0247	846 ± 4	–
15950 kPa, x1 = 0.1024	944 ± 4	–
16260 kPa, x1 = 0.0247	851 ± 4	–
16380 kPa, x1 = 0.1024	947 ± 4	–
16620 kPa, x1 = 0.0247	855 ± 4	–
16800 kPa, x1 = 0.1024	950 ± 4	–
16910 kPa, x1 = 0.0102	837 ± 4	–
17010 kPa, x1 = 0.0247	860 ± 4	–
17180 kPa, x1 = 0.1024	953 ± 4	–
17600 kPa, x1 = 0.1024	956 ± 4	–
18050 kPa, x1 = 0.1024	959 ± 4	–
18370 kPa, x1 = 0.1024	962 ± 4	–
18750 kPa, x1 = 0.1024	964 ± 4	–
18990 kPa, x1 = 0.1024	965 ± 4	–
